Data taken from US20240091390A1, “IMPROVED CHOLECYSTOKININ-2 RECEPTOR (CCK2R) TARGETING FOR DIAGNOSIS AND THERAPY” (Medizinische Universität Innsbruck, priority 2021, published 2024).
Starred links: 1 amine or outer side, 2 acyl side, 3 side chain; linkers in the order of their positions; H or OH if unused. Non-standard residues stand in square brackets, D forms with d. Residues, ends and D or L forms follow the SMILES beside them. *: point of attachment. DOTA = O=C(O)CN1CCN(CC(=O)O)CCN(CC(=O)*)CCN(CC(=O)O)CC1; d(γGlu) = O=C(O)[C@@H](CCC(=O)[*:2])N[*:1]; 1Nal = N[C@@H](Cc1cccc2ccccc12)C(=O)O; NMeNle = CCCC[C@H](NC)C(=O)O; GABA = NCCCC(=O)O; βAla = NCCC(=O)O

Key:
[1] = in vivo; conditions: female, athymic BALB/c nude, mouse, iv, total radioactivity
Procedure: (§1) For the induction of tumour xenografts, A431-CCK2R and A431-mock cells were injected subcutaneously in athymic BALB/c nude mice (Charles River or Janvier Labs), respectively (2 million cells in 200 μL). When tumours had reached a size of approximately 0.2 ml, biodistribution studies were carried out. Groups of 3-5 mice were injected intravenously via a lateral tail vein with the peptidomimetics, labelled with ^177Lu (0.5-1 MBq and 0.02-0.03 nmol peptidomimetic) or ^68Ga (˜0.5 MBq and 0.02-0.03 nmol peptidomimetic). To check for receptor specificity blocking studies using co-injection of a 1000-fold molar excess of the unlabelled peptide (˜20 nmol) together with the administration of the ^177Lu-labelled peptide were performed (FIG. 3). After selected time points post-injection (p.i.) the animals were sacrificed by cervical dislocation, tumours and other tissues (blood, lung, heart, muscle, bone, spleen, intestine, liver, kidneys, stomach, pancreas) were removed, weighed, and their radioactivity measured in a gamma counter.
(§2) The biodistribution profile of ^177Lu-DOTA-MGSA and ^177Lu-DOTA-MGS5 over up to 7 days was studied in female athymic BALB/c nude mice, inoculated with A431-CCK2R cells (left flank) at an age of 6-8 weeks (5 animals per peptidomimetic and for each time point of 1 h, 24 h, 3 d and 7 d). When tumours had reached a size of approximately 0.1-0.2 ml, biodistribution studies were carried out.

[2] = in vivo; conditions: female, athymic BALB/c nude, mouse, iv, total radioactivity; remark: listed apart in the source
Procedure: (§3) Biodistribution studies evaluating the tumour uptake of the radiolabelled inventive CCK2R targeting peptide analogues were performed in xenografted nude mice.
(§4) For the induction of tumour xenografts, A431-CCK2R and A431-mock cells were injected subcutaneously in athymic BALB/c nude mice (Charles River or Janvier Labs), respectively (2 million cells in 200 μL). When tumours had reached a size of approximately 0.2 ml, biodistribution studies were carried out. Groups of 3-5 mice were injected intravenously via a lateral tail vein with the peptidomimetics, labelled with ^177Lu (0.5-1 MBq and 0.02-0.03 nmol peptidomimetic) or ^68Ga (˜0.5 MBq and 0.02-0.03 nmol peptidomimetic). […] After selected time points post-injection (p.i.) the animals were sacrificed by cervical dislocation, tumours and other tissues (blood, lung, heart, muscle, bone, spleen, intestine, liver, kidneys, stomach, pancreas) were removed, weighed, and their radioactivity measured in a gamma counter.
(§5) Results were expressed as percentage of injected activity per gram tissue (% IA/g) and tumour to organ activity ratios were calculated from the activity measured in the dissected tissues (FIGS. 2 and 3).

[3] = test system: A431-CCK2R tumour xenografts; conditions: mouse, in vivo
Procedure: as §1, §2

[4] = target: T1, CCK2R (Homo sapiens, UniProt P32239); experiment: Competition binding assay against [^125I][3-iodo-Tyr^12,Leu^15]gastrin-I on A431-CCK2R cells; conditions: displacement of [^125I][3-iodo-Tyr^12,Leu^15]gastrin-I, 1 h at RT
T1 construct: expressed in transfected cells; host or cells: A431 cells (A431-CCK2R), provided by Dr. Luigi Aloj
T1 sequence (P32239 1-447): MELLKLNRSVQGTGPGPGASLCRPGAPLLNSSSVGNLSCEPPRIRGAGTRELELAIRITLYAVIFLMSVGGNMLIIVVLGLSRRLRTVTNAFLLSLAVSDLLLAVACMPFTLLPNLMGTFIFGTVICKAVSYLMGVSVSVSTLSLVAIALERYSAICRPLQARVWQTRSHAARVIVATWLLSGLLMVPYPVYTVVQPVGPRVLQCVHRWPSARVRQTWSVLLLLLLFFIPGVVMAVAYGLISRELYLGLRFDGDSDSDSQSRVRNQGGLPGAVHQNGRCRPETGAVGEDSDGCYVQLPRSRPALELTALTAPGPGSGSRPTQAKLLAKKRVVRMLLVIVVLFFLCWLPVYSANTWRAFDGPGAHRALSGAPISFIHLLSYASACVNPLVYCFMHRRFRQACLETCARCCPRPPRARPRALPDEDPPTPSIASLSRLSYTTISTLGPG
Procedure: Affinity for CCK2R was studied in A431-CCK2R cells. […] Radioiodination of gastrin-I was carried out using the chloramine-T method. Non-carrier-added [^125I][3-iodo-Tyr^12,Leu^15]gastrin-I was obtained by HPLC purification and stored in aliquots at −20° C. Binding assays were carried out in 96-well filter plates (MultiScreenHTS-FB, Merck Group, Darmstadt, Germany) pretreated with 10 mM TRIS/139 mM NaCl pH 7.4 (2×250 μL). For the assay a number of 400,000 A431-CCK2R cells per well was prepared in 35 mM HEPES buffer pH 7.4 containing 10 mM MgCl2, 14 μM bacitracin and 0.5% BSA (a hypotonic solution disturbing the integrity of the cell membranes). The cells were incubated in triplicates with increasing concentrations of the peptidomimetics (0.0003 to 1,000 nM) and [^125I-Tyr^12]gastrin-I (˜25,000 cpm) for 1 h at RT. Incubation was interrupted by filtration of the medium and rapid rinsing with ice-cold 10 mM TRIS/139 mM NaCl pH 7.4 (2×200 μl) and the filters were counted in the gamma-counter. Half maximal inhibitory concentration (IC50) values were calculated following nonlinear regression with Origin software (Microcal Origin 6.1, Northampton, MA) and a representative assay was chosen for comparison.

[5] = test system: A431-CCK2R tumour xenografts; conditions: ^68Ga-labelled, previously reported (Klingler M et al., J Nucl Med 2019); cited from earlier work
[6] = in vivo; conditions: female, athymic BALB/c nude, mouse, iv, total radioactivity; remark: listed apart in the source
Procedure: as §4
In further biodistribution studies the tumour uptake and imaging properties of different ^68Ga-labelled pepitdiomimetics was evaluated. For this purpose female athymic BALB/c nude mice (Janvier Labs, Le Genest Saint Isle, France) were inoculated with A431-CCK2R cells (left flank) at an age of 8-10 weeks.

[7] = cited from earlier work
[8] = Stability against enzymatic degradation in vivo (radio-HPLC of blood); parameters: species or system BALB/c mice; conditions: ^177Lu-labelled; for percentage of intact radioligand present in the blood: 30 min p.i.
Procedure: To further characterise the stability of the radiolabelled peptidomimetic in vivo, metabolic studies were carried out in 5-6-week-old female BALB/c mice (Charles River, Sulzfeld, Germany) injected intravenously with ^177Lu-labelled and ^68Ga-labelled peptidomimetics. All animal experiments were conducted in compliance with the Austrian animal protection laws and with the approval of the Austrian Ministry of Science. To allow monitoring of the metabolites by radio-HPLC, mice were injected with a higher amount of radioactivity (20-40 MBq ^177Lu, corresponding to ˜1 nmol total peptide, or ˜10 MBq ^68Ga, corresponding to ˜1 nmol total peptide) through a lateral tail vein and euthanized by cervical dislocation at selected time points p.i. […] A sample of blood was collected and the degradation was assessed by radio-HPLC. For this purpose blood samples were precipitated with ACN, centrifuged at 2000 g for 2 min and diluted with water (1:1/v:v) prior to HPLC analysis using a Dionex chromatography system including radiodetection and UV detection equipped with a Phenomenex Jupiter Proteo C12 column (90 Å, 4 μm, 250×4.6 mm) column using a water/acetonitrile/0.1% TFA gradient system.

[9] = test system: A431-CCK2R and A431-mock tumour xenografts; conditions: ^177Lu-labelled, 4 h p.i., Klingler M et al., J Med Chem 2020; cited from earlier work
[10] = 10 min after intravenous injection; cited from earlier work
[11] = Biodistribution of ^177Lu-labelled peptidomimetics at 4 h p.i. in xenografted nude mice; conditions: female, athymic BALB/c nude, mouse, iv, total radioactivity
Procedure: as §3, §4, §5

[12] = test system: A431-CCK2R tumour xenografts; experiment: Biodistribution of ^177Lu-labelled peptidomimetics up to 7 days p.i.; conditions: difference not significant
Procedure: as §1, §2

[13] = tumour uptake in A431-CCK2R xenografts

CCCC[C@@H](C(=O)N[C@@H](CC(=O)O)C(=O)N[C@@H](Cc1cccc2ccccc12)C(N)=O)N(C)C(=O)[C@H](Cc1c[nH]c2ccccc12)NC(=O)CCNC(=O)CC(O)CNC(=O)CC(O)CNC(=O)CN1CCN(CC(=O)O)CCN(CC(=O)O)CCN(CC(=O)O)CC1 (single isomer, unassigned) [^177Lu-DOTA-MGSA, ^177Lu-DOTA-GABOB-GABOB-βAla-Trp-(NMe)Nle-Asp-1Nal-NH2, metal not drawn]
tissue uptake at 1 h [1]: 56.3 ± 9.1 %ID/g
tissue uptake at 168 h [1]: 1.2 ± 0.5 %ID/g
tissue to tissue ratio at 4 h [2]: 16.7 ± 2.7
tissue uptake at 4 h ([2]; kidney uptake): 2 ± 0.3 %ID/g
tissue uptake at 4 h [2, 13]: 32.1 ± 4.1 %ID/g
accumulation of radioactivity in kidneys compared to ^177Lu-DOTA-MGS5 [3]: significantly lower

CCCC[C@@H](C(=O)N[C@@H](CC(=O)O)C(=O)N[C@@H](Cc1cccc2ccccc12)C(N)=O)N(C)C(=O)[C@H](Cc1c[nH]c2ccccc12)NC(=O)CCNC(=O)CC[C@@H](NC(=O)CC[C@@H](NC(=O)CN1CCN(CC(=O)O)CCN(CC(=O)O)CCN(CC(=O)O)CC1)C(=O)O)C(=O)O [DOTA-MGSC, DOTA-γDGlu-γDGlu-βAla-Trp-(NMe)Nle-Asp-1Nal-NH2] ({DOTA-d(γGlu)-d(γGlu)-βAla}-W[NMeNle]D[1Nal]-NH2)
IC50 [4]: 0.16 ± 0.01 nM

CCCC[C@@H](C(=O)N[C@@H](CC(=O)O)C(=O)N[C@@H](Cc1cccc2ccccc12)C(N)=O)N(C)C(=O)[C@H](Cc1c[nH]c2ccccc12)NC(=O)CNC(=O)[C@H](Cc1ccc(O)cc1)NC(=O)[C@H](C)NC(=O)[C@@H](CCC(=O)O)NC(=O)CN1CCN(CC(=O)O)CCN(CC(=O)O)CCN(CC(=O)O)CC1 [^68Ga-DOTA-MGS5, metal not drawn]
kidney uptake [5]: 5.71±1.38 % IA/g
tumour uptake [5]: 23.3±4.7 % IA/g
tissue to tissue ratio at 1 h [6]: 4.1 ± 0.3

[1,4,7,10-tetraazacyclodocecan-1,4,7,10-tetraacetic acid^0,D-Glu^1,DesGlu^2-6]minigastrin [^111In-DOTA-MG11]
biological half-life in vivo [7]: below five minutes

CCCC[C@@H](C(=O)N[C@@H](CC(=O)O)C(=O)N[C@@H](Cc1cccc2ccccc12)C(N)=O)N(C)C(=O)[C@H](Cc1c[nH]c2ccccc12)NC(=O)CCNC(=O)CC(O)CNC(=O)CC(O)CNC(=O)CN1CCN(CC(=O)O)CCN(CC(=O)O)CCN(CC(=O)O)CC1 (stereo partly drawn) [DOTA-MGSA, DOTA-Gabob-Gabob-βAla-Trp-(NMe)Nle-Asp-1Nal-NH2]
IC50 [4]: 0.21 ± 0.01 nM

CCCC[C@H](NC(=O)[C@H](Cc1c[nH]c2ccccc12)NC(=O)CNC(=O)[C@H](Cc1ccc(O)cc1)NC(=O)[C@H](C)NC(=O)[C@@H](CCC(=O)O)NC(=O)[C@@H](CCC(=O)O)NC(=O)[C@@H](CCC(=O)O)NC(=O)[C@@H](CCC(=O)O)NC(=O)[C@@H](CCC(=O)O)NC(=O)[C@@H](CCC(=O)O)NC(=O)CN1CCN(CC(=O)O)CCN(CC(=O)O)CCN(CC(=O)O)CC1)C(=O)N[C@@H](CC(=O)O)C(=O)N[C@@H](Cc1ccccc1)C(N)=O [^177Lu-PP-F11N, DOTA-DGlu-DGlu-DGlu-DGlu-DGlu-DGlu-Ala-Tyr-Gly-Trp-Nle-Asp-Phe-NH2, metal not drawn]
percentage of intact radioligand present in the blood [8]: 12.7%

CCCC[C@@H](C(=O)N[C@@H](CC(=O)O)C(=O)N[C@@H](Cc1cccc2ccccc12)C(N)=O)N(C)C(=O)[C@H](Cc1c[nH]c2ccccc12)NC(=O)CNC(=O)[C@H](Cc1ccc(O)cc1)NC(=O)[C@@H]1CCCN1C(=O)[C@@H](CCC(=O)O)NC(=O)CN1CCN(CC(=O)O)CCN(CC(=O)O)CCN(CC(=O)O)CC1 [^177Lu-DOTA-MGS8, metal not drawn] ({DOTA}-[dE]PYGW[NMeNle]D[1Nal]-NH2; C-terminus assumed)
tumour uptake in A431-CCK2R xenografts [9]: 34.7±9.4 % IA/g
percentage of intact radioligand present in the blood [8]: 56.8%

CSCC[C@H](NC(=O)[C@H](Cc1c[nH]c2ccccc12)NC(=O)CNC(=O)[C@H](Cc1ccc(O)cc1)NC(=O)[C@H](C)NC(=O)[C@@H](CCC(=O)O)NC(=O)[C@@H](CCC(=O)O)NC(=O)[C@@H](CCC(=O)O)NC(=O)[C@@H](CCC(=O)O)NC(=O)[C@@H](CCC(=O)O)NC(=O)[C@@H](CCC(=O)O)NC(=O)CN1CCN(CC(=O)O)CCN(CC(=O)O)CCN(CC(=O)O)CC1)C(=O)N[C@@H](CC(=O)O)C(=O)N[C@@H](Cc1ccccc1)C(N)=O [^177Lu-PP-F11, metal not drawn]
intact peptide in urine and blood [10]: no intact peptide could be found
percentage of intact radioligand present in the blood [8]: 5.5%

CCCC[C@@H](C(=O)N[C@@H](CC(=O)O)C(=O)N[C@@H](Cc1cccc2ccccc12)C(N)=O)N(C)C(=O)[C@H](Cc1c[nH]c2ccccc12)NC(=O)CNC(=O)[C@H](Cc1ccc(O)cc1)NC(=O)[C@H](C)NC(=O)[C@@H](CCC(=O)O)NC(=O)CN1CCN(CC(=O)O)CCN(CC(=O)O)CCN(CC(=O)O)CC1 [^177Lu-DOTA-MGS5, metal not drawn]
tissue uptake at 4 h ([11]; kidney, kidney uptake, ^177Lu-labelled, 4 h p.i.): 3.5 ± 0.9 %ID/g
tissue to tissue ratio at 4 h ([11]; tumour and kidney): 7 ± 2.2
uptake levels in the blood, comparison of the two peptidomimetics [12]: somewhat lower uptake levels
percentage intact in the blood ([8]; 10 min p.i.): 85.9%
percentage of intact radioligand present in the blood [8]: 77.0%

CCCC[C@@H](C(=O)N[C@@H](CC(=O)O)C(=O)N[C@@H](Cc1cccc2ccccc12)C(N)=O)N(C)C(=O)[C@H](Cc1c[nH]c2ccccc12)NC(=O)CCNC(=O)CC[C@@H](NC(=O)CC[C@@H](NC(=O)CN1CCN(CC(=O)O)CCN(CC(=O)O)CCN(CC(=O)O)CC1)C(=O)O)C(=O)O [^68Ga-DOTA-MGSC, ^68Ga-DOTA-γDGlu-γDGlu-βAla-Trp-(NMe)Nle-Asp-1Nal-NH2, metal not drawn] ({DOTA-d(γGlu)-d(γGlu)-βAla}-W[NMeNle]D[1Nal]-NH2)
tissue to tissue ratio at 1 h [6]: 14.5 ± 0.6
tissue uptake at 1 h ([6]; kidney uptake): 2.5 ± 0.1 %ID/g
tissue uptake at 1 h [6, 13]: 36 ± 1.4 %ID/g

CCCC[C@@H](C(=O)N[C@@H](CC(=O)O)C(=O)N[C@@H](Cc1cccc2ccccc12)C(N)=O)N(C)C(=O)[C@H](Cc1c[nH]c2ccccc12)NC(=O)CCNC(=O)CCCNC(=O)CCCNC(=O)CN1CCN(CC(=O)O)CCN(CC(=O)O)CCN(CC(=O)O)CC1 [DOTA-MGSB, DOTA-Gaba-Gaba-βAla-Trp-(NMe)Nle-Asp-1Nal-NH2] ({DOTA-GABA-GABA-βAla}-W[NMeNle]D[1Nal]-NH2)
IC50 [4]: 0.31 ± 0.02 nM

CCCC[C@@H](C(=O)N[C@@H](CC(=O)O)C(=O)N[C@@H](Cc1cccc2ccccc12)C(N)=O)N(C)C(=O)[C@H](Cc1c[nH]c2ccccc12)NC(=O)CCNC(=O)CC(O)CNC(=O)CC(O)CNC(=O)CN1CCN(CC(=O)O)CCN(CC(=O)O)CCN(CC(=O)O)CC1 (single isomer, unassigned) [^68Ga-DOTA-MGSA, ^68Ga-DOTA-GABOB-GABOB-βAla-Trp-(NMe)Nle-Asp-1Nal-NH2, metal not drawn]
tissue to tissue ratio at 1 h [6]: 11.2 ± 0.8
tissue uptake at 1 h ([6]; kidney uptake): 2.4 ± 0.2 %ID/g
tissue uptake at 1 h [6, 13]: 27 ± 0.2 %ID/g
